The values that follow come from patent US4264597A, “Cephalosporin analogues and processes for the preparation thereof” (priority 1978, dated 1981).

≈ marks a conversion by molar mass, not a printed value.

The subject of this experiment is T. asteroides. Description: In vitro antimicrobial activity, two-fold agar-plate dilution method (MIC). It is filed as cell-based. The following applies: overnight culture in Trypticase-soy broth (10^4-5 viable spores per ml) streaked on HI-agar, incubation at 37° C. for 20 hours. The procedure: In vitro antibacterial activity was determined by the two-fold agar-plate dilution method as described below. One loopful of an overnight culture of each test strain in Trypticase-soy broth (10^4-5 viable spores per ml) was streaked on heart infusion sugar (HI-agar) containing graded concentrations of antibiotics, and the minimal inhibitory concentration (MIC) was expressed in terms of μg/ml after incubation at 37° C. for 20 hours.

Take `O=C(COc1ccccc1)N[C@@H]1C(=O)N2C(C(=O)OCc3ccccc3)=CC(=O)S[C@H]12` [(1)]: it took 100 µg/mL (≈ 228 µM) to inhibit growth (MIC).
`O=C(COc1ccccc1)N[C@@H]1C(=O)N2C(C(=O)OCc3ccccc3)=CC(=O)O[C@H]12` [(2)]: 200 µg/mL (≈ 473 µM) was the least that counted as inhibitory (MIC).

The term MIC denotes the lowest concentration that inhibits growth of the organism. Low readings indicate inhibition by little substance, high ones a need for much substance.
